# Values quoted from earlier work as cited in US20070167418A1 (priority 2004, published 2007).
# Where two headings read alike, the source gives them in different places.
# Assays:
# ED = conditions: oral
# men with ED [1] = conditions: intraurethral suppositories
# [2] = in vivo
# men with ED [3] = conditions: 100 mg; placebo twenty-two percent
# [4] = not given; remark: listed apart in the source
smiles,measurement,setting,value
COC(=O)[C@@H]1[C@H]2C[C@H]3c4[nH]c5ccccc5c4CCN3C[C@@H]2CC[C@@H]1O [Yohimbine],efficacy in the treatment of ED,ED,limited efficacy
CCCCC[C@H](O)/C=C/[C@H]1[C@H](O)CC(=O)[C@@H]1CCCCCCC(=O)O [alprostadil],efficacy compared with penile injection,men with ED [1],less effective
CC(C)NCC(O)COc1ccc(CC(N)=O)cc1 (stereo not shown) [atenolol],men reporting ED after beginning treatment,"50 mg, men informed of its sexual adverse effects",31%
same,men reporting ED after beginning treatment,"similarly treated, men blinded as to the study drug",3%
CCCc1nn(C)c2c(=O)[nH]c(-c3cc(S(=O)(=O)N4CCN(C)CC4)ccc3OCC)nc12 [sildenafil],half-life,[2],four to five
same,men achieving successful intercourse,men with ED [3],sixty-nine
CN1CC(=O)N2[C@H](c3ccc4c(c3)OCO4)c3[nH]c4ccccc4c3C[C@@H]2C1=O [tadalafil],half-life,[2],approximately eighteen
C[C@]12CC[C@H]3[C@@H](CCC4=CC(=O)CC[C@@]43C)[C@@H]1CC[C@@H]2O [testosterone],restoring physiological testosterone levels,[4]; gels,high efficacy
same,men with erythrocytosis,[4]; gels or patches,5%
same,"men with gynecomastia, peripheral edema, exacerbation or de novo sleep apnea, acne and mild weight gain",[4]; in vivo,less than 2%
same,men with erythrocytosis,[4]; injections,≤ 50%
same,hepatotoxicity risk,[4]; oral agents available in the United States,significant risk of hepatotoxity
same,liver toxicity,[4]; transdermal or intramuscular preparations,does not seem to be associated
same,men with local skin reactions,"[4]; transdermal, patches",≤ 40%
CCCc1nc(C)c2c(=O)[nH]c(-c3cc(S(=O)(=O)N4CCN(CC)CC4)ccc3OCC)nn12 [vardenafil],half-life,[2],four to five
same,time of peak serum concentrations,[2],approximately one
